According to patent US20080171716A1, “NUCLEIC ACID MODULATION OF TOLL-LIKE RECEPTOR-MEDIATED IMMUNE STIMULATION” (Protiva Biotherapeutics, Inc., priority 2006, published 2008):
“Also recorded” adds a separate entry of the source. m = 2'-O-methyl; r = 2'-OH (RNA)

Experiments:
TLR7 = biological target: T1, TLR7 (Homo sapiens, UniProt Q9NYK1); experiment: Loxoribine (TLR7 agonist)-induced IFN-α/IL-6 production in human PBMCs; type: cell-based; conditions: for reduction of Lox induced IFN-α / reduction of Lox induced IL-6: 300 μM Lox, formulated 2′OMe RNA 1.5 μg/ml (~0.2 μM), 24 h, replicate experiments; for IL-6 levels induced by naked loxoribine / level of IFN-α induced by naked loxoribine: SNALP-encapsulated ssRNA added before naked agonist, supernatant at 24 hr, ELISA
T1 construct: Human PBMCs were isolated from whole blood of healthy donors; endogenous in cells; host or cells: primary human PBMCs from healthy donors
T1 sequence (Q9NYK1 27-1049): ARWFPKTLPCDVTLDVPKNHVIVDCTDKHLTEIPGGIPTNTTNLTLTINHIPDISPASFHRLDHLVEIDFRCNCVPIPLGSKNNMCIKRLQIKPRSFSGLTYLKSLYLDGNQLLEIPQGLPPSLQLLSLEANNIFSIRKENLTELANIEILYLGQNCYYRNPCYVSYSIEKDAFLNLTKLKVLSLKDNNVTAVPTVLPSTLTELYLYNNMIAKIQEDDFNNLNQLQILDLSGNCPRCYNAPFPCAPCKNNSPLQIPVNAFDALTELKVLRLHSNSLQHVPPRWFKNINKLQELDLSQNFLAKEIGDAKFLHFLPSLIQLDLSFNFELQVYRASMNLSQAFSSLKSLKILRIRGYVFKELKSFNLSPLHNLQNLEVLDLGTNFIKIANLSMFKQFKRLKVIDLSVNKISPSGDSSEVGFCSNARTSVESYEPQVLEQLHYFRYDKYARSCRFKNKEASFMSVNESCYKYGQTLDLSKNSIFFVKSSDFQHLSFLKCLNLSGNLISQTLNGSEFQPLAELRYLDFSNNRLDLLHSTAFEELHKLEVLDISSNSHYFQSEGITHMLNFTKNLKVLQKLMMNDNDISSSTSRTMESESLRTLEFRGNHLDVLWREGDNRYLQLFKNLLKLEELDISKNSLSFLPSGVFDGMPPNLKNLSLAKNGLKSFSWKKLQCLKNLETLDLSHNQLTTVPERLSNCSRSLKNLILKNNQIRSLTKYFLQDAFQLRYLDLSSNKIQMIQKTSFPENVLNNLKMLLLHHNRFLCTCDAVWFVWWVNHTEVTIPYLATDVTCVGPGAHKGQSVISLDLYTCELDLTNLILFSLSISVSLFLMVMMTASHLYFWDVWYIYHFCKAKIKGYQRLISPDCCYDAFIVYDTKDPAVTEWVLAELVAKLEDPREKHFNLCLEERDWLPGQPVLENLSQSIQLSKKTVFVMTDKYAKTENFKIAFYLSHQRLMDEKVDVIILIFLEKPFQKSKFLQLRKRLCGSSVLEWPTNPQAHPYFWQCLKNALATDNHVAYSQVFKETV
Description: (§1) All RNA molecules used in this study were heated at 90° C. for 3 min. and then placed at 37° C. for 60 min. Non-denaturing PAGE analysis on a 20% polyacrylamide gel was performed to confirm that ssRNA molecules were intact and that no duplexes had formed upon heating. The RNA molecules were encapsulated in a SNALP formulation comprising PEG-cDMA:DLinDMA:cholesterol:DSPC in a 2:40:48:10 mol % ratio (2:40 SNALP), prepared using a syringe press process.
(§2) Fresh human peripheral blood mononuclear cells (PBMCs) were isolated and seeded at about 3×10^5 cells/well in a total volume of 180 μl. Next, 20 μl of the appropriate SNALP diluted in PBS or 10 μl of naked TLR agonist were added to the PBMCs. For time course experiments, PBMCs were pretreated with UmodS ssRNA or a control and the appropriate naked TLR agonist was added at 0, 0.5, or 2 hours after pretreatment. When the SNALP and naked TLR agonist were added separately, the SNALP was added first followed by the naked TLR agonist. At t=24 hr., the cell supernatant was harvested and IFN-α and/or IL-6 levels were determined using ELISA.
(§3) Lipid Encapsulation of RNA and ODN. RNA or ODN were encapsulated in liposomes by a process of spontaneous vesicle formation as described in Judge et al., supra, and Jeffs et al., Pharm. Res., 22:362-372 (2005).
(§4) Cell Isolation and Culture. Human PBMCs were isolated from whole blood of healthy donors by a standard Ficoll-Hypaque density centrifugation. Blood was diluted 1:1 with PBS, layered onto Ficoll-Paque Plus, and centrifuged at 1600 RPM for 30 min. PBMCs were washed in PBS twice followed by resuspension in complete media (RPMI 1640, 10% heat inactivated FBS, 2 mM L-glutamine, and 1% penicillin/streptomycin). PBMCs were plated at 2.5×10^5 cells/well in 96 well plates for cytokine induction assays.
(§5) Loxoribine (InvivoGen; San Diego, Calif.), polyIC (Sigma-Aldrich; St. Louis, Mo.), and formulated nucleic acids were diluted in PBS and added to either human PBMC or Flt3L DC cultures. Cells were incubated 24 h at 37° C. before supernatants were assayed for cytokines by ELISA.
(§6) Cytokine ELISA. All cytokines were quantified using sandwich ELISA kits according to the manufacturer's instructions. These were mouse and human IFN-α (PBL Biomedical; Piscataway, N.J.) and IL-6 (eBioscience; San Diego, Calif.).

TLR7/8 = experiment: Cytokine induction in human PBMCs by immunostimulatory RNA, alone or co-formulated with modified ssRNA in the same SNALP/lipid particle; type: cell-based; conditions: for immunostimulatory effects (IFN-α induction) of ApoB antisense ssRNA when co-formulated / immunostimulatory effects (IFN-α induction) of ApoB siRNA duplex when co-formulated: co-formulated in the same SNALP; for immunostimulatory effects (IFN-α induction) of ApoB antisense ssRNA when co-formulated: 1:1 molar ratio; for immunostimulatory effects (IFN-α induction) of ApoB siRNA duplex when co-formulated: equimolar
Description: as §1, §2
The ssRNA molecules used in this study were heated at 90° C. for 3 min. and then placed at 37° C. for 60 min to disrupt any potential secondary structure. Non-denaturing PAGE analysis on a 20% polyacrylamide gel was performed to confirm that ssRNA molecules were intact and that no duplexes had formed upon heating. siRNA duplexes were prepared by annealing equimolar concentrations of two deprotected and desalted ssRNA oligonucleotides using standard procedures. Formation of annealed siRNA duplexes was confirmed by non-denaturing PAGE analysis on a 20% polyacrylamide gel. The RNA molecules were encapsulated in a 2:40 SNALP formulation prepared using a syringe press process.
Fresh human peripheral blood mononuclear cells (PBMCs) were isolated and seeded at about 3×10^5 cells/well in a total volume of 180 μl. Next, 20 μl of the appropriate SNALP diluted in PBS were added to the PBMCs. At t=24 hr., the cell supernatant was harvested and IFN-α and/or IL-6 levels were determined using an enzyme-linked immunosorbent assay (ELISA). For example, IFN-α and IL-6 levels can be measured using a sandwich ELISA kit available from PBL Biomedical (Piscataway, N.J.) and eBioscience (San Diego, Calif.), respectively.
as §3, §4, §5, §6

[1] = human PBMCs, co-encapsulated in equimolar amounts in the same SNALP, 24 hr
[2] = human PBMCs, 24 h, listed as Luc-mU
[3] = human PBMCs, equimolar amounts in the same SNALP, 24 h

Row | Substance | reduction of Lox induced IFN-α (TLR7) | reduction of Lox induced IL-6 (TLR7) | IL-6 levels induced by naked loxoribine (TLR7) | level of IFN-α induced by naked loxoribine (TLR7) | IFN-α production induced by the RNA alone (TLR7/8; human PBMC cultures, lipid-formulated RNA alone, doses 0.1 to 3 μg/ml) | IFN-α levels induced by TLR7/8 agonist RNA40 (TLR7/8; [1]) | IL-6 levels induced by TLR7/8 agonist RNA40 (TLR7/8; [1]) | immunostimulatory effects (IFN-α induction) of ApoB antisense ssRNA when co-formulated (TLR7/8; human PBMCs, 24 h) | immunostimulatory effects (IFN-α induction) of ApoB antisense ssRNA when co-formulated (TLR7/8; [2]) | immunostimulatory effects (IFN-α induction) of ApoB siRNA duplex when co-formulated (TLR7/8; human PBMCs, 24 h) | immunostimulatory effects (IFN-α induction) of ApoB siRNA duplex when co-formulated (TLR7/8; [2]) | IFN-α levels induced by β-gal antisense ssRNA when co-encapsulated (TLR7/8; [3]) | cytokine production from human PBMCs when co-formulated with immunostimulatory RNA (TLR7/8; human PBMCs, co-formulated with immunostimulatory ssRNA) | IL-6 levels induced by β-gal antisense ssRNA when co-encapsulated (TLR7/8; [3]) | IFN-α levels induced by β-gal antisense ssRNA when co-encapsulated (TLR7/8; human PBMCs, equimolar amounts in the same SNALP, 24 h, listed as (mU)21)
1 | Luc UmodS: Luc sense strand ssRNA with 2′OMe at uridines: GAmUmUAmUGmUCCGGmUmUAmUGmUAUU (sense GAUUAUGUCCGGUUAUGUAUU; sugars from the 5' end rrmmrmrmrrrrmmrmrmrrr, backbone not given here) | 55+/−16% | 62+/−10% | inhibited | dose-dependently decrease; also recorded: inhibited | do not induce measurable IFN-α production | significantly reduce | significantly reduce | abolished | abrogated | significantly reduced | abrogated | abrogated |  |  | 
2 | polyUmod21: 2′OMe-uridine homopolymer of 21 nucleotides in length (UUUUUUUUUUUUUUUUUUUUU; all 2'-O-methyl, backbone not given here) | 72+/−5% | 80+/−1% | inhibited | inhibited |  |  |  |  |  |  |  | significantly reduced | equally as effective at inhibiting cytokine production | significantly reduced | inhibit
